Test results: article PMC10535710, “Beauvericin suppresses the proliferation and pulmonary metastasis of osteosarcoma by selectively inhibiting TGFBR2 pathway” (International Journal of Biological Sciences, 2023)

Legend:
[1] = target: T1, TGFBR2 K252R (Homo sapiens, UniProt P37173, K252R); experiment: DARTS (protection from pronase) in OS cells expressing the mutant; assay type: cell-based
T1 construct: TGFBR2 K252R overexpression plasmid transfected into OS cells

[2] = target: T2, TGFBR2 (Homo sapiens, UniProt P37173); experiment: TR-FRET LanthaScreen Eu Kinase Binding Assay (tracer […]; reported as kinase activity inhibition); supported by MST, DARTS on recombinant protein, CETSA
T2 construct: MST used recombinant human TGFBR2 ECD
T2 sequence (P37173 188-567 limits assumed): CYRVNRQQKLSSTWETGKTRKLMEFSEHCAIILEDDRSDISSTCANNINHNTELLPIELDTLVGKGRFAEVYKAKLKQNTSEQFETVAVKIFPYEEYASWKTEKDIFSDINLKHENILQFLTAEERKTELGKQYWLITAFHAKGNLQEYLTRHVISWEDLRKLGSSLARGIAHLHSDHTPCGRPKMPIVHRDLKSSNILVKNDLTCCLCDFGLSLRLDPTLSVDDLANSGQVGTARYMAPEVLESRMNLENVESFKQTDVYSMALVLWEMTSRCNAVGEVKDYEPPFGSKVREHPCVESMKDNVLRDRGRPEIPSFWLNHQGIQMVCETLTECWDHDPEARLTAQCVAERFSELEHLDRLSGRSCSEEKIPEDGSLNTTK

T1 sequence (P37173 23-567 K252R): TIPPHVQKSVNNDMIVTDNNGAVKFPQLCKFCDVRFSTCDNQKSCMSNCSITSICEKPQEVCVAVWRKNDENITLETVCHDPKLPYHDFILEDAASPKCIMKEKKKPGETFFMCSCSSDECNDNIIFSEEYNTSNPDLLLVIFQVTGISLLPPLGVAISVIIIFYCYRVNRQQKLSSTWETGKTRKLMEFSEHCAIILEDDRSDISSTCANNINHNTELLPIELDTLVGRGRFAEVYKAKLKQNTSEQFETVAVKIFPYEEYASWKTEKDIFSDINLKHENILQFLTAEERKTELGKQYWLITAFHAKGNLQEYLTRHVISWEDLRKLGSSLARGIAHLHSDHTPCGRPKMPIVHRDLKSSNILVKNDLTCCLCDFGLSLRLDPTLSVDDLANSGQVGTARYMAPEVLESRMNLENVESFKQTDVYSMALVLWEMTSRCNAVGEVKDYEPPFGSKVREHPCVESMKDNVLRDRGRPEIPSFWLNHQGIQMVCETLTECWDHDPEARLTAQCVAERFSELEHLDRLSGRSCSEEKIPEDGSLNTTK

For `CC(C)[C@H]1OC(=O)[C@H](Cc2ccccc2)N(C)C(=O)[C@@H](C(C)C)OC(=O)[C@H](Cc2ccccc2)N(C)C(=O)[C@@H](C(C)C)OC(=O)[C@H](Cc2ccccc2)N(C)C1=O` [BEA, beauvericin], the “DARTS (protection from pronase) in OS cells expressing the mutant” value [1] was “BEA suppressed the pronase-induced degradation of TGFBR2^K252R (Figure S7A-B), indicating that BEA may bind to TGFBR2 at N332” and the IC50 [2] was 1360 ± 210 nM.
